Assay results published in ChEMBL document CHEMBL5329222, “Discovery of novel tubulin CBSI (R)-9k from the indanone scaffold for the treatment of colorectal cancer” (RSC Med Chem, 2023).

Assays:
Tubulin (Bos taurus) [1] = target: T1, Tubulin (Bos taurus) (UniProt Q6B856+Q862L2+Q862F3); test: Inhibition of bovine brain tubulin polymerization at 3 uM measured at 2 to 20 mins by spectrophotometer analysis relative to control; details: time 2-20 min
SW480 = test: Growth inhibition of human SW480 cells incubated for 1.5 hrs by MTT assay; format: functional, cell-based
Tubulin (Bos taurus) [2] = target: T1, Tubulin (Bos taurus); test: Inhibition of bovine brain tubulin polymerization at 12 uM measured at 2 to 20 mins by spectrophotometer analysis relative to control; details: time 2-20 min
HCT-116 [3] = test: Inhibition of colony formation in human HCT-116 cells at 1 uM incubated for 48 hrs by crystal violet staining based analysis; format: functional; details: HCT-116, 48 h, values are per cent of control
HCT-116 [4] = test: Inhibition of colony formation in human HCT-116 cells at 0.5 uM incubated for 48 hrs by crystal violet staining based analysis; format: functional; details: HCT-116, 48 h, values are per cent of control
[5] = target: Voltage-gated inwardly rectifying potassium channel KCNH2 (Homo sapiens, UniProt Q12809); test: Inhibition of hERG expressed in CHO cells at 40 uM by automated patch clamp analysis; format: toxicity, cell-based
HCT-116 [6] = test: Induction of apoptosis in human HCT-116 cells assessed as viable cells at 1.5 uM incubated for 24 hrs by annexin V-FITC/7-AAD staining based flow cytometry analysis (reference value: 90.19%); format: functional; details: read-out: Activity
HCT-116 [7] = test: Inhibition of cell migration in human HCT-116 cells at 5 uM measured for 24 hrs by scratch wound healing assay; format: functional
HCT-116 [8] = test: Inhibition of cell migration in human HCT-116 cells at 0.5 uM measured for 24 hrs by scratch wound healing assay; format: functional
[9] = Cytotoxicity against HEK293 cells assessed as inhibition of cell growth incubated 1.5 hrs by MTT assay; format: toxicity, cell-based; details: human
HCT-116 [10] = test: Induction of apoptosis in human HCT-116 cells assessed as early apoptotic cells at 3 uM incubated for 24 hrs by annexin V-FITC/7-AAD staining based flow cytometry analysis (reference value: 5.82%); format: functional
hERG (KCNH2) = hERG (KCNH2) (Homo sapiens, UniProt Q12809); test: Inhibition of hERG expressed in CHO cells at 40 uM by automated patch clamp analysis relative to control; format: toxicity, cell-based; details: CHO cells that express hERG
HCT-116 [11] = test: Induction of cell cycle arrest in human HCT-116 cells assessed as accumulation of cells at G2 phase at 3 uM incubated for 24 hrs by flow cytometry analysis (reference value: 18.25%); format: functional
HCT-116 [12] = test: Induction of cell cycle arrest in human HCT-116 cells assessed as accumulation of cells at G2/M phase at 6 uM incubated for 24 hrs by flow cytometry analysis (reference value: 18.25%); format: functional
CT26 = test: Growth inhibition of CT26 cells incubated for 1.5 hrs by MTT assay; format: functional, cell-based; details: Mus musculus, CT26, 1.5 h
[13] = Potency index, ratio of test compound IC50 to 5-fluorouracil IC50 for cytotoxicity against HEK293 cells assessed as inhibition of cell growth incubated 1.5 hrs by MTT assay; format: toxicity, cell-based; details: human, read-out: Ratio IC50
HCT-116 [14] = test: Inhibition of cell migration in human HCT-116 cells at 2 uM measured for 24 hrs by scratch wound healing assay; format: functional

Sequence of hERG (KCNH2) (Q12809 whole entry): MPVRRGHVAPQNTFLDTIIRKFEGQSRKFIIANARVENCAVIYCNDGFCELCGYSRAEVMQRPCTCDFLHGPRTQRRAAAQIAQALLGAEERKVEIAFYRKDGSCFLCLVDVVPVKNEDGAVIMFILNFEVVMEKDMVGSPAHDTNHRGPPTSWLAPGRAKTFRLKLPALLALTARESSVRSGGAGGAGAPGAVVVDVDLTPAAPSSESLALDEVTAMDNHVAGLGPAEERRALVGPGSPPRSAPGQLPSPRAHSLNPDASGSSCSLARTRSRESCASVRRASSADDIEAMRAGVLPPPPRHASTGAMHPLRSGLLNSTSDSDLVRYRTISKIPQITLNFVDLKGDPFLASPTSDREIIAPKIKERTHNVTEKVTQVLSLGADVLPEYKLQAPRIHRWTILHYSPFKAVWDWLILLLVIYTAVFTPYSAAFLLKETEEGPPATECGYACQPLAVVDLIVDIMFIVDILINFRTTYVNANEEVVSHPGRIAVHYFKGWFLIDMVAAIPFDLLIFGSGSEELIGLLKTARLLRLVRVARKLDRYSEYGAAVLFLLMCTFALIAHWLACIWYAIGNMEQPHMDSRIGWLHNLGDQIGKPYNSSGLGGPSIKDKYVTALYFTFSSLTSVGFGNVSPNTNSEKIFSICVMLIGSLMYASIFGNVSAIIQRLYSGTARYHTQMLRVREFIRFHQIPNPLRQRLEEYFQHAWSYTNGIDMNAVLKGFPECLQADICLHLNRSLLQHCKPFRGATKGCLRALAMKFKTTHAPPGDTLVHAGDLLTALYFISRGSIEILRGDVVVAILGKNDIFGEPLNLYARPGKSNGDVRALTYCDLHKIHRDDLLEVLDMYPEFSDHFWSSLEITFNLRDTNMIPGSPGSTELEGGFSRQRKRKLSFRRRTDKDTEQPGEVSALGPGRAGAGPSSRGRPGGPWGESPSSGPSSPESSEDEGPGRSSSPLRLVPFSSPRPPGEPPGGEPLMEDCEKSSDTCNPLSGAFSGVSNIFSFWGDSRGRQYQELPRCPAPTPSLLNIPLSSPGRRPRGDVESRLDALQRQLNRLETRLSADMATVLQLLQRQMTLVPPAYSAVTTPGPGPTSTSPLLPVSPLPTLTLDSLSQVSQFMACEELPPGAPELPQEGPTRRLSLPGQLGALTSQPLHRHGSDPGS
Sequence of Voltage-gated inwardly rectifying potassium channel KCNH2 (Q12809 whole entry): as above

SMILES: CCOc1ccc([C@H]2CC(=O)c3cc(OC)c(OC)c(OC)c32)cc1F
- inhibition (Tubulin (Bos taurus) [1]): 30%
- IC50 (SW480): 1310 nM
- inhibition (Tubulin (Bos taurus) [2]): 66%
- growth, % of control at 1 µM (HCT-116 [3]): 1.3%
- growth, % of control at 0.5 µM (HCT-116 [4]): 30.8%
- IC50 [5]: > 40 µM
- viability at 1.5 µM (HCT-116 [6]): 86.7%
- inhibition at 5 µM (HCT-116 [7]): 80%
- inhibition at 0.5 µM (HCT-116 [8]): 21%
- IC50 at 1.5 h [9]: 7.45 µM
- Activity (HCT-116 [10]): 18.75%
- inhibition at 40 µM (hERG (KCNH2)): 42%
- Activity (HCT-116 [11]): 28.73%
- Activity (HCT-116 [12]): 47.34%
- IC50 (CT26): 4.11 µM
- selectivity ratio at 1.5 h [13]: 1.39
- inhibition at 2 µM (HCT-116 [14]): 55%
